PMC8035703, “Effect of Synchronous Versus Sequential Regimens on the Pharmacokinetics and Biodistribution of Regorafenib with Irradiation” (Pharmaceutics, 2021)
Where two headings read alike, the source gives them in different places.

Tests used:
CYP3A4 = system: CYP3A4; design: method as in PMID 21170960; conditions: cited from earlier work
Huh-7 cells [1] = test: Cell cycle analysis (propidium iodide, flow cytometry); format: cell-based, human
Description: The cells were collected, fixed and stained with propidium iodide. Flow cytometry was performed, using a Beckman Coulter Elite Epics sorter. The sub-G1 phase was used to quantify dead cells in the apoptosis assays. Cells were released into DMSO or regorafenib at 5, 10 and 20 μM in the concurrent or sequential groups with different RT doses. Floating and adherent cells were harvested at various time points, stained with propidium iodide and analyzed by flow cytometry.

Huh-7 cells [2] = test: Cell viability assay (MTT), Huh-7; format: cell-based, human; conditions: for IC50 / viability at 5 µM / viability at 10 µM / viability at 20 µM: Homo sapiens; for IC50: MTT after 24 h, read-out: IC50 (estimated concentration at which 50% of cells were killed); for viability at 5 µM: Huh-7, regorafenib 5 μM; for viability at 10 µM: Huh-7, regorafenib 10 μM; for viability at 20 µM: Huh-7, regorafenib 20 μM
Description: Human hepatoma Huh-7 and Hep G2 cell lines kindly provided by Professor Hu (Taipei Veterans General Hospital, Taiwan) were plated into 96-well plates (1 × 10^3 per well) with serum-containing medium (100 μL) for 1 day. Regorafenib at concentrations of 0, 5, 10 and 20 μmol/L (μM) was added to the plates. Then, the study groups were designed: the concurrent group (1 h after irradiation) or sequential group (24 h after irradiation) with sham RT (RT0 Gy), 2 Gy (RT2 Gy) and 9 Gy (RT9 Gy). Additionally, after 24 h, 20 μL of 5 mg/mL MTT was added to the plates and incubated for 3 h. The supernatant was discarded, the precipitate was dissolved in 200 μL DMSO, and the plates were read with a microplate reader at 570 nm and a reference wavelength of 630 nm.

HA22T cells = test: Colony formation assay; format: cell-based, human
Description: HA22T cells kindly provided from professor Hu (Taipei Veterans General Hospital, Taiwan) were treated with trypsin to detach, counted and plated (400 per plate) into dishes measuring 60 mm, […] and allowed to grow for 10 days. Cells were stained, and colonies containing ≥ 50 cells were counted.

Huh-7 cells [3] = test: Apoptosis assay (Annexin-V FITC / PI); format: cell-based, human
Text: Annexin-V FITC and propidium iodide (PI) (BD Bioscience Pharmingen (San Diego, CA, USA)) were used to identify apoptotic cells by FACScan. Cells that were positive for Annexin V and negative for PI were defined as early apoptotic cells. Cells that were positive for both Annexin V and PI were defined as late apoptotic cells.

SMILES: CNC(=O)c1cc(Oc2ccc(NC(=O)Nc3ccc(Cl)c(C(F)(F)F)c3)c(F)c2)ccn1 [regorafenib, Regorafenib]
- Metabolic pathway (in words) (CYP3A4): metabolized via CYP3A4
- Accumulation of sub-G1 Huh-7 cells (in words) (Huh-7 cells [1]; concurrent groups): correlated with the dose of regorafenib but was not correlated with RT or its absence
- Accumulation of sub-G1 Huh-7 cells (in words) (Huh-7 cells [1]; sequential groups): correlated with the doses of regorafenib and RT
- Effect on viability of Huh-7 cells (in words) (Huh-7 cells [2]; 0-20 μM): inhibited the viability of Huh-7 cells in a dose-dependent manner
- IC50 (Huh-7 cells [2]; Huh-7, 24 h, Huh-7, RT0 Gy, S (regorafenib added 24 h following RT)): 12.8 µM
- IC50 (Huh-7 cells [2]; Huh-7, 24 h, Huh-7, RT2 Gy, S (regorafenib added 24 h following RT)): 12.1 µM
- IC50 (Huh-7 cells [2]; Huh-7, 24 h, Huh-7, RT9 Gy, S (regorafenib added 24 h following RT)): 15.2 µM
- IC50 (Huh-7 cells [2]; Huh-7, Huh-7, RT0 Gy, C (regorafenib added 1 h following RT)): 6.56 µM
- IC50 (Huh-7 cells [2]; Huh-7, Huh-7, RT2 Gy, C (regorafenib added 1 h following RT)): 6.38 µM
- IC50 (Huh-7 cells [2]; Huh-7, Huh-7, RT9 Gy, C (regorafenib added 1 h following RT)): 6.36 µM
- viability at 5 µM (Huh-7 cells [2]; Huh-7, RT0 Gy, C): 60.9 ± 1.8%
- viability at 5 µM (Huh-7 cells [2]; Huh-7, RT0 Gy, S): 72.6 ± 1%
- viability at 5 µM (Huh-7 cells [2]; Huh-7, RT2 Gy, C): 59.8 ± 5.5%
- viability at 5 µM (Huh-7 cells [2]; Huh-7, RT2 Gy, S): 59.5 ± 2.7%
- viability at 5 µM (Huh-7 cells [2]; Huh-7, RT9 Gy, C): 62.3 ± 14.1%
- viability at 5 µM (Huh-7 cells [2]; Huh-7, RT9 Gy, S): 60.2 ± 5.6%
- viability at 10 µM (Huh-7 cells [2]; Huh-7, RT0 Gy, C): 35.1 ± 1.6%
- viability at 10 µM (Huh-7 cells [2]; Huh-7, RT0 Gy, S): 55.2 ± 1.2%
- viability at 10 µM (Huh-7 cells [2]; Huh-7, RT2 Gy, C): 33.9 ± 2.7%
- viability at 10 µM (Huh-7 cells [2]; Huh-7, RT2 Gy, S): 46 ± 2.9%
- viability at 10 µM (Huh-7 cells [2]; Huh-7, RT9 Gy, C): 34.3 ± 5.3%
- viability at 10 µM (Huh-7 cells [2]; Huh-7, RT9 Gy, S): 47.6 ± 3%
- viability at 20 µM (Huh-7 cells [2]; Huh-7, RT0 Gy, C): 15.4 ± 1%
- viability at 20 µM (Huh-7 cells [2]; Huh-7, RT0 Gy, S): 41.4 ± 0.4%
- viability at 20 µM (Huh-7 cells [2]; Huh-7, RT2 Gy, C): 14.4 ± 0.8%
- viability at 20 µM (Huh-7 cells [2]; Huh-7, RT2 Gy, S): 36.3 ± 1.4%
- viability at 20 µM (Huh-7 cells [2]; Huh-7, RT9 Gy, C): 14.1 ± 0.7%
- viability at 20 µM (Huh-7 cells [2]; Huh-7, RT9 Gy, S): 41.1 ± 1.7%
- Viability: concurrent regorafenib with RT2 Gy and RT9 Gy vs regorafenib only (in words) (Huh-7 cells [2]; Huh-7 and Hep G2): no synergistic effects
- Viability with regorafenib following RT2 Gy and RT9 Gy (in words) (Huh-7 cells [2]; Huh-7 and Hep G2, regorafenib 10 and 20 μM, sequential): higher than the regorafenib-only and concurrent regimen
- Colony formation, regorafenib with RT vs regorafenib alone (in words) (HA22T cells; regorafenib 1, 10 and 20 μM, concurrent or sequential with RT): synergic effects to inhibit the colony formation
- Colony formation of HA22T (in words) (HA22T cells; regorafenib 1 to 20 μM and RT (2 and 9 Gy)): colony formation of HA22T were decreased
- Late apoptosis of Huh-7 cells (in words) (Huh-7 cells [3]; RT followed by regorafenib): enhanced the late apoptosis of Huh-7 cells
- Apoptosis of Huh-7 cells (in words) (Huh-7 cells [3]; regorafenib concurrent with or following RT): caused Huh-7 cell apoptosis in a dose-dependent manner
